Experiment: gradient 5% acetonitrile 3 min, to 50% in 2 min, to 85% in 15 min, held 3 min, 100 µL/min
Conditions: column: Zorbax Extend-C18 2.1 x 50 mm; eluents: water / acetonitrile, 0.1% formic acid
Method in brief: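 The system's dead and dwell volumes were 40 μL and 900 μL, with a Zorbax Extend-C18 column (2.1 × 50 mm, 1.8 μm) run at 100 μL/min in water and acetonitrile containing 0.1% formic acid each. Pure standards were analyzed in mixtures of ~100 molecules by HPLC–quadrupole time-of-flight mass spectrometry in positive and negative ionization mode. Retention time was assigned from computationally picked, manually inspected adduct peaks.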

| RP-LC retention time | Structure (SMILES) |
| --- | --- |
| 668 s | CN1C(=O)C(CC(=O)NC2CCCC2)Sc2ncccc21 (stereo not drawn) |
| 880 s | COc1ccc(S(=O)(=O)Nc2ccccc2C(=O)Nc2ccc3c(c2)OCCO3)cc1 |
| 745 s | CN1C(=O)c2cccnc2Sc2cc(NC(=O)c3cccs3)ccc21 |
| 903 s | CCc1cccc(N2C(=O)CN(S(C)(=O)=O)CC2(C)C(=O)NCc2ccc(Cl)cc2)c1 (stereo not drawn) |
| 1020 s | CCCCn1cc(S(=O)(=O)Nc2cccc(Cl)c2)c2cccnc21 |
| 1160 s | Cc1ccc(-c2noc(-c3ccccc3S(=O)(=O)N3CCN(c4ncccn4)CC3)n2)cc1 |
| 1160 s | CCOC(=O)c1noc2nc(C)nc(Nc3ccc(CC)cc3)c12 |
| 637 s | CCc1nc2ccc(-c3noc(CNC(=O)c4ccccc4)n3)cc2n1CC |
| 874 s | CC1CCN(S(=O)(=O)c2ccc3c(c2)CCCC(=O)N3CC(=O)NC2CCCC2)CC1 |
| 592 s | CC1(C)CC(=O)c2cn(-c3ccc(Cl)cc3)c(=O)c(C(=O)NCCN3CCOCC3)c2C1 |
| 569 s | CCCc1nc(NCc2cccnc2)ncc1C(=O)O |
| 822 s | Cc1oc(-c2ccc(NC(=O)c3ccc4c(c3)OCO4)cc2)nc1Cn1cccn1 |
| 566 s | O=C(NC1CC1)c1c2c(nc3ccccc13)CCC2 |
| 757 s | CSc1ccc(CNC(=O)Cc2c(C(=O)O)c(C)cn2C)cc1 |
| 870 s | Cc1cc(C)c(S(=O)(=O)N2CCn3c(nn(CC4CC4)c3=O)C2)c(C)c1 |
| 573 s | O=C(Cc1csc(NC(=O)c2ccsc2)n1)NCc1nc2ccccc2[nH]1 |
| 598 s | O=C(NCc1ccncc1)C1CN(S(=O)(=O)C2CC2)CC12CCCCC2 (stereo not drawn) |
| 790 s | Cc1noc(-c2nn(C)c3c2CN(C(=O)Nc2ccc(Cl)cc2)CC3)n1 |
| 784 s | COc1ccccc1CCNC(=O)CSC1CCc2ccccc2NC1=O (stereo not drawn) |
| 1160 s | Cc1ccccc1NS(=O)(=O)c1cccc(-c2nc(-c3ccccc3)no2)c1 |
| 579 s | CC(C)C(=O)N1CCCn2nc(-c3cccnc3)cc2C1 |
| 598 s | COc1ccccc1-c1nnc(N)s1 |
| 947 s | COc1ccc(N2CC(c3nc(-c4ccc(Cl)cc4)no3)CC2=O)cc1OC (stereo not drawn) |

| RP-LC retention time | Structure (SMILES) |
| --- | --- |
| 674 s | N#CC1=C(SCC(=O)Nc2nccs2)NC2=C(C(=O)CCC2)C1c1ccco1 (stereo not drawn) |
| 729 s | CCN1CCCn2cc(S(=O)(=O)Nc3ccc(C)cc3F)cc2C1=O |
| 677 s | CCN(CC)CCCNC(=O)C1CCCN(c2ncc(-c3cccc(F)c3)cn2)C1 (stereo not drawn) |
| 641 s | COC(=O)c1ccc(CSc2nnc(-c3cn(C)nc3OC)n2C)cc1 |
| 1160 s | Cc1ccc(-c2noc(CSc3nc4cc5c(cc4c(=O)n3CC3CCCO3)OCO5)n2)cc1 (stereo not drawn) |
| 779 s | CNS(=O)(=O)c1cc(-c2nnc(-c3ccc(OC)c(OC)c3)o2)ccc1C |
| 837 s | CCC1Oc2ccc(S(=O)(=O)N3CCC(C(=O)Nc4cccc(C)c4C)CC3)cc2NC1=O (stereo not drawn) |
| 604 s | O=C(NCC1(N2CCOCC2)CCOC1)Nc1cc(F)cc(F)c1 (stereo not drawn) |
| 817 s | CN(Cc1cccs1)C(=O)NC(C)(C)C |
| 1010 s | CC1CCN(c2cc(-c3noc(C(=O)N4CCc5ccccc5C4)n3)ccn2)CC1 |
| 915 s | COc1cccc(C(=O)Nc2ccc3c(c2)Sc2ncccc2C(=O)N3C(C)C)c1OC |
| 1000 s | O=c1ccn(-c2ccc(Cl)cc2)nc1-c1nc(-c2ccccc2Br)no1 |
| 596 s | Cc1cc(C)n(-c2ccnc(NCCc3ccccn3)n2)n1 |
| 692 s | CC(=O)N1CCc2cc(N3CC(C(=O)NCc4ccc(F)cc4F)CC3=O)ccc21 (stereo not drawn) |
| 646 s | CCc1ccc(CNC(=O)c2cn3c(n2)CCCC3)cc1 |
| 675 s | COc1ccc(CC(=O)Nc2c(C(=O)N3CCN(c4ccccn4)CC3)oc3ccccc23)cc1 |
| 609 s | CCOC(=O)c1noc2nc(C)nc(NCC3CCN(Cc4cccc(C)c4)CC3)c12 |
| 610 s | Cc1ccc2nc3c(c(C(=O)NC(C)C)c2c1)CCC3 |
| 693 s | COC(=O)[C@H](CCSC)NC(=O)c1ccc(-n2cnnn2)cc1 |
| 782 s | CCOc1ccc(S(=O)(=O)N2CCC(C(=O)Nc3ccc(C(N)=O)cc3)CC2)cc1C |
| 731 s | Cn1cnc2ccc(-c3noc(CCc4c[nH]c5ccccc45)n3)cc21 |
| 732 s | O=C(Nc1cnc(N2CCCC2)nc1)c1ccc(Br)o1 |
| 553 s | CCn1cc(S(=O)(=O)N2CCCC2c2nncn2Cc2ccncc2)cn1 (stereo not drawn) |

| RP-LC retention time | Structure (SMILES) |
| --- | --- |
| 808 s | CC(C)C(=O)Nc1cn(-c2ccc(C(=O)Nc3ccc4c(c3)OCCO4)cc2)cn1 |
| 956 s | CC(NC(=O)CN1C(=O)C2CCCCN2c2ccc(S(=O)(=O)N3CCCC3)cc21)c1ccccc1 (stereo not drawn) |
| 766 s | CC(C)n1cnc(S(=O)(=O)N2CCCC(C(=O)N3CCN(c4ccccc4)CC3)C2)c1 (stereo not drawn) |
| 683 s | Cc1ccc(CNC(=O)c2ccc3c(=O)n(Cc4ccccc4)c(N4CCCC4)nc3c2)o1 |
| 669 s | COc1nn(C)cc1C(=O)NCC(O)c1ccc(C(F)(F)F)cc1 (stereo not drawn) |
| 909 s | Cc1ccc(-c2cc3c(=O)n(Cc4nc(-c5ccccn5)no4)ccn3n2)cc1C |
| 651 s | CCN1C(=O)CN(C(=O)C2CCCC2)CC12CCOCC2 |
| 872 s | Cc1ccccc1-c1nnc(COc2ccc(NC(=O)c3ccoc3)cc2)o1 |
| 521 s | OC[C@@H]1CN(Cc2ccc(OC(F)(F)F)cc2)C[C@H]1c1ccncc1 |
| 898 s | CC(C)n1cnc(S(=O)(=O)N2CCCC(C(=O)Nc3cccc(Br)c3)C2)c1 (stereo not drawn) |
| 827 s | Cc1ccc(Nc2c(-c3ccc(Cl)cc3)nc3nc(C)cc(C)n23)cc1 |
| 697 s | COc1ccc(NC(=O)CN2CCN(Cc3ccc(F)cc3)C(=O)C2=O)cc1 |
| 991 s | O=C(Nc1nc(-c2ccccc2)cs1)NC1CCCCC1 |
| 654 s | O=C1N(c2ccccc2)CC12CCN(S(=O)(=O)Cc1ccccc1)CC2 |
| 794 s | COc1ccc(CNC2=NCCNC23CCN(S(=O)(=O)c2cc(C)c(C)cc2C)CC3)cc1 |
| 1090 s | COc1cc(-c2nc3sc4c(c3c(=O)o2)CCC4)cc(OC)c1OC |
| 719 s | c1ccc(CSc2nc3ncncc3[nH]2)cc1 |
| 582 s | O=C(NCCCN1CCCC1=O)C1CCN(c2cncnc2N2CCCCC2)CC1 |
| 1010 s | Cc1ccc(NC(=O)C(=O)NC(C)c2ccccc2)cc1C (stereo not drawn) |
| 925 s | CCc1ccc(C(=O)N2CC3CN(S(=O)(=O)c4cccc(C)c4)CC(C2)O3)cc1 |
| 562 s | Cc1noc([C@@H]2CN(Cc3c(F)cccc3F)C[C@H]2CO)n1 |

| Structure (SMILES) | RP-LC retention time |
| --- | --- |
| Cc1ccc(C(=O)Nc2nccnc2C(=O)N2CCC3(CC2)OCCO3)cc1 | 724 s |
